Experimental data as given in PMC11985001, “Melatonin rescues cell respiration impaired by hypoxia/reoxygenation in aortic endothelial cells and affects the mitochondrial bioenergetics targeting the F1FO-ATPase” (Redox Biology, 2025).

What was measured:
[1] = molecular target: T1, F1 domain of mitochondrial F1FO-ATPase (F1-ATPase) (Sus scrofa, UniProt K7GLT8+P80021); experiment: ATP hydrolysis (Pi release) with partially purified F1, […] NBD-Cl; assay type: biochemical
T1 construct: gene ATP5F1B; partially purified F1 domain from swine heart mitochondria; with other subunits of the F1 complex
T1 sequence (K7GLT8 89-570): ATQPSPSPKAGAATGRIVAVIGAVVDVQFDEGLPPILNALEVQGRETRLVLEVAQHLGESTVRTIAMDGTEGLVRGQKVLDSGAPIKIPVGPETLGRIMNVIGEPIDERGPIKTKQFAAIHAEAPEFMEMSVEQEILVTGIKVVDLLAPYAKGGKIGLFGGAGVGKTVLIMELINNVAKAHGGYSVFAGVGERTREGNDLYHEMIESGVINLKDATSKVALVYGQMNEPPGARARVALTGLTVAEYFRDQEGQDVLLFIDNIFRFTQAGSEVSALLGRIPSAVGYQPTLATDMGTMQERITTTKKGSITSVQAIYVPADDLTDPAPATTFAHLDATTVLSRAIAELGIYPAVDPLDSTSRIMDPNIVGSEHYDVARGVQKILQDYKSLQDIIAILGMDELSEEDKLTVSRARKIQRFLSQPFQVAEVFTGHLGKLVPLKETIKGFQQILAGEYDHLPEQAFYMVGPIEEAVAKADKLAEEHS
T1 sequence (P80021 44-553): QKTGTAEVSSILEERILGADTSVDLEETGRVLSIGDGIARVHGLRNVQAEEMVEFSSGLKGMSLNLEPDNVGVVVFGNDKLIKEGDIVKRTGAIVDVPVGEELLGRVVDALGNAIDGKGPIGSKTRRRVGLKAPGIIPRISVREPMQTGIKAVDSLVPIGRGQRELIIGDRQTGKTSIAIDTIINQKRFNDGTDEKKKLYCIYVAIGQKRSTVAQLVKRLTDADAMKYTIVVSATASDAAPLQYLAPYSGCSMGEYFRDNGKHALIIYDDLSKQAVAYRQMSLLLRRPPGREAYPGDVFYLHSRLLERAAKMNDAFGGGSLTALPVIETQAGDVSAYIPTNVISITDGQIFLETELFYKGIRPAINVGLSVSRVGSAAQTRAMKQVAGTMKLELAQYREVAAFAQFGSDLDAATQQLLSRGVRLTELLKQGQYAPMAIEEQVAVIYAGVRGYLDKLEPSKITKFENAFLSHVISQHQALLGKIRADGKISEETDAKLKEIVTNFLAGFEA
T1 sequence (A0A286ZYL7 23-168 partner): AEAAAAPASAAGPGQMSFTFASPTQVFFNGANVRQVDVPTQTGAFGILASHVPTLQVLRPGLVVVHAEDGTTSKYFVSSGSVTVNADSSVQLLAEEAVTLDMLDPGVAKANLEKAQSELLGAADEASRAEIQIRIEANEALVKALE
T1 sequence (A5GFX4 2-51 partner): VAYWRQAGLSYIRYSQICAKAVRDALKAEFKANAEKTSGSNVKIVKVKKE

[2] = molecular target: T2, F1 domain of mitochondrial F1FO-ATPase (Ca2+-activated F1-ATPase) (Sus scrofa, UniProt K7GLT8+P80021); experiment: ATP hydrolysis (Pi release) with partially purified F1 at […] melatonin; IC50 from the mitochondrial Ca2+-activated F1FO-ATPase (K'i […]); assay type: biochemical
T2 construct: gene ATP5F1B; native whole F1FO-ATPase in frozen-thawed pig heart mitochondria; not purified F1
T2 sequence (K7GLT8 89-570): as the sequence (K7GLT8 89-570) above
T2 sequence (P80021 44-553): as the sequence (P80021 44-553) above
T2 sequence (A0A286ZYL7 23-168 partner): as the sequence (A0A286ZYL7 23-168 partner) above
T2 sequence (A5GFX4 2-51 partner): as the sequence (A5GFX4 2-51 partner) above
T2 sequence (Q2EN81 24-213 partner): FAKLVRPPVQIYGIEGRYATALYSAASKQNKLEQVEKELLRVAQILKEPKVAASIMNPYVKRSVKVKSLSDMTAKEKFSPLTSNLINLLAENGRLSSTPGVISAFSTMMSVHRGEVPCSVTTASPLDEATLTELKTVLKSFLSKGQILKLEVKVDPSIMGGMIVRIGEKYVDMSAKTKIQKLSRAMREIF
T2 sequence (Q35915 whole entry partner, the tested form may be a part): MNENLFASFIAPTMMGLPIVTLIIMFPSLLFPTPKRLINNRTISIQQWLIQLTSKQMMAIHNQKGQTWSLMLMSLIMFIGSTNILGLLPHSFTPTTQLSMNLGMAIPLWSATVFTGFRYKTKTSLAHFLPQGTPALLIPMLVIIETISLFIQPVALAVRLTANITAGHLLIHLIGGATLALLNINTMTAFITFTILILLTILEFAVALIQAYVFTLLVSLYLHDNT

O=[N+]([O-])c1ccc(Cl)c2nonc12 [NBD-Cl]
ATP hydrolysis (Pi release) with partially purified F1, 75 μM NBD-Cl [1]: F1-ATPase activity was insensitive to oligomycin and was inhibited by NBD-Cl.

COc1ccc2[nH]cc(CCNC(C)=O)c2c1 [melatonin]
IC50 [2]: 6.63 ± 2.33 mM
